According to paper PMC5584254, “Identification of novel small molecule Beclin 1 mimetics activating autophagy” (Oncotarget, 2017):

Experiments:
[1] = biological target: T1, Bcl-xL-Beclin 1 20-mer complex (Homo sapiens, UniProt Q07817); experiment: FP competitive binding assay (disruption of Bcl-xL-20-mer complex); conditions: 50 nM 20-mer, 2 μM Bcl-xL
T1 construct: made in house
Protocol: Figure 1 FP-based HTS for Beclin 1 mimetics (A) Schematic presentation of the Beclin 1 protein and sequences of five synthetic peptides modified from Beclin 1 BH3 peptide. Diagram of human Beclin 1 protein with different domains is shown in the bottom. BH3 domain is necessary and sufficient for interaction with Bcl-2/Bcl-xL. Amino acids in red are the critical residues for the binding. (B) Five fluorescein-labeled Beclin 1 BH3 peptides were tested for their binding ability to Bcl-xL protein in FP assay. Fluorescein-labeled Bak BH3 peptide was used as a positive control. Bcl-xL protein was titrated to a solution of 50 nM peptides. (C) Competitive binding assay with positive controls, ABT-263 and (–)-gossypol ((–)G). […] (D–E) HTS was performed with ~50000 compounds from Prestwick, Microsource, CMLD and Chembridge libraries. The four libraries were divided into two groups and screened separately. Compounds activity (percent of inhibition) of first screen (D) and second screen (E) were shown with Z′ value indicated on top. Plate median + 3SD was used as a threshold to determine the initial hits.
Bcl-xL protein was immobilized on the sensor chip with 10000 RU.
All N′-fluorescein-labeled peptides were purchased from Kansas State University (Manhattan, KS). […] 16mer Bak ([…]) sequence was from published literature. Bcl-xL protein (25 kDa, > 90% pure based on SDS–PAGE) was expressed and purified in Protein Product Group, University of Kansas. FP assays were carried out as described in our previous publication with some modified. […] Then, fluorescein-labeled peptide was added to each well with a final concentration of 50 nM and incubated at room temperature for 30 min. Anisotropy measurements were taken at room temperature using a BioTek Synergy H4 plate reader (Biotek, Winooski, VT) following the protocol recommended by the manufacture. The Kd was estimated by nonlinear regression to a one-site binding model using GraphPad Prism 5.0 (GraphPad, San Diego, CA). […] Compound solvent DMSO only was used as a negative control in the competition assay. After 2 h incubation, the plate was read and polarization was calculated.

[2] = tested on: DU145; experiment: MTT-based cytotoxicity assay, DU145; conditions: Homo sapiens, DU-145, averages of at least two independent experiments, read-out: Cytotoxicity in different cell lines (IC50, μM) DU145
From the text: (§1) Human prostate cancer cell lines PC-3 and DU145, were purchased from American Type Culture Collection (ATCC) and used within 50 passages. PC-3a is a derivative of PC-3 that is resistant to chemo/radiotherapy, established in our lab and confirmed by genotyping. All cells were maintained in DMEM (Mediatech, Manassas, VA) supplemented with 10% fetal bovine serum (FBS) (Sigma-Aldrich, St. Louis, MO), 1% Glutamine (Mediatech, Manassas, VA), 1% antibiotics (Mediatech, Manassas, VA). Compounds for primary FP-based HTS screening were from Prestwick, Microsource, University of Kansas Center of Excellence in Chemical Methodologies & Library Development (KU CMLD, Lawrence, KS), and Chembridge libraries. Compounds for MTT and SPR validation experiment were purchased from Microsource (Gaylordsville, CT) and Hit2lead Company (San Diego, CA). Acridine analogues, compound 1–6, were from our in-house library (provided by Specialized Chemistry Center, University of Kansas, Lawrence, KS); compound 7–17 were synthesized as described in supplementary information. (–)-Gossypol was isolated from racemic gossypol as we previously described. ABT-263 and DMSO were purchased from Sigma. MTT-based cytotoxicity assay and western blot analysis was carried out according to our previous publications. The primary antibodies used were LC3B (#2775) (Cell signaling Technology, Danvers, MA) and β-actin (A5441) (Sigma).

[3] = biological target: T2, Bcl-xL protein (Homo sapiens, UniProt Q07817); experiment: Surface plasmon resonance assay, immobilized Bcl-xL; type: binding; conditions: for binding level to Bcl-xL protein in SPR: 10 μM compound, Bcl-xL immobilized 10000 RU
T2 construct: made in house
Protocol: (§2) The surface plasmon resonance experiments were performed using a Biacore 3000 (GE Healthcare Pittsburgh, PA) equipped with a research-grade CM5 sensor chip. The ligand (Bcl-xL) was immobilized using amine-coupling chemistry. The surfaces of flow cells on a Biacore sensor chip CM5 were activated for 7 min with a 1:1 mixture of 0.1 M NHS (N-hydroxysuccinimide) and 0.1 M EDC (3-(N,N-dimethylamino) propyl-N-ethylcarbodiimide) at a flow rate of 5 μL/min. The ligand (Bcl-xL) at a concentration of 180 μg/mL in 10 mM sodium acetate, pH 4.5, was immobilized at a density of about 10000 RU on flow cell 2; the ligand (SUMO-Bcl-2, 37.5 kDa, > 90% pure based on SDS–PAGE) at a concentration of 44 μg/ml in 10 mM sodium acetate, pH 4.5, was immobilized at a density of 10000 RU on flow cell 3; flow cell 1 was left blank to serve as a reference surface. All the surfaces were blocked with a 7 min injection of 1 M ethanolamine, pH 8.0.
(§3) For kinetic analysis, a concentration series of analyte were injected over the flow cells at a flow rate of 60 μL/min at 20 °C. The complex was allowed to associate and dissociate for 120 and 180 s, respectively. For binding studies, analyte (or test compound) was injected over the two flow cells in duplicate at indicated concentration at a flow rate of 60 μL/min at 20 °C. The running buffer consisted of 20 mM HEPES, 150 mM NaCl, 3 mM EDTA, 1 mM DTT, 0.05% P20, 5% DMSO, pH 7.4. The complex was allowed to associate and dissociate for 120 and 180 s, respectively. The buffer samples containing a range of 4–6% DMSO were injected at the beginning, used for solvent correction. The surfaces were regenerated between binding cycles with a 5 s injection of 5 mM NaOH for compounds and 10 mM Glycine pH 2.5 for 20-mer.
All measurements were taken with flow cell 1 as a reference (i.e. sensorgram depicts “2–1 correction”) and corrected for DMSO bulk differences via the calibration curves. To obtain kinetic rate constants (Ka and Kd), corrected response data were fit to a simple 1:1 interaction model using local fit (includes correction for mass transport limitations) available within Biaevaluation 3.1 software or Scrubber2 software. The equilibrium dissociation constant (KD) was determined by Kd/Ka.

[4] = tested on: PC-3a; experiment: MTT-based cytotoxicity assay, PC-3a; conditions: Homo sapiens, averages of at least two independent experiments, read-out: Cytotoxicity in different cell lines (IC50, μM) PC-3a
From the text: as §1

[5] = tested on: PC-3; experiment: MTT-based cytotoxicity assay, PC-3; conditions: Homo sapiens, averages of at least two independent experiments, read-out: Cytotoxicity in different cell lines (IC50, μM) PC-3
From the text: as §1

[6] = tested on: DU145, PC-3a and PC-3 prostate cancer cell lines; experiment: MTT-based cytotoxicity assay, all three prostate cancer cell lines; set-up: species or system Human; conditions: for IC50: Homo sapiens, DU-145, MTT, DU145, PC-3a and PC-3, read-out: cytotoxicity IC50, stated for all three cell lines together; for fold difference in IC50 value, PC-3 and PC-3a versus DU145: higher cytotoxicity in PC-3 and PC-3a than in DU145
From the text: We also tested the cytotoxicity of the 17 compounds in human prostate cancer cell lines by MTT assay (Table 1).
as §1, with “PC-3a is a derivative of PC-3 that is resistant to chemo/radiotherapy, established in our lab and confirmed by genotyping.” left out, “Acridine analogues, compound 1–6, were from our in-house library (provided by Specialized Chemistry Center, University of Kansas, Lawrence, KS); compound 7–17 were synthesized as described in supplementary information.” left out

[7] = biological target: Bcl-2 protein (SUMO-Bcl-2) (Homo sapiens, UniProt P10415); experiment: Surface plasmon resonance assay, immobilized Bcl-2; type: binding
Protocol: as §2, §3
All measurements were taken with flow cell 1 as a reference (i.e. sensorgram depicts “2–1 correction”) and corrected for DMSO bulk differences via the calibration curves. […] The equilibrium dissociation constant (KD) was determined by Kd/Ka.

[8] = tested on: PC-3 and PC-3a prostate cancer cells; experiment: Western blot of autophagy markers (LC3 conversion, P62); type: cell-based, Human
Protocol: Figure 5 Acridine compounds induce autophagy in prostate cancer cells (A) LC3-II conversion in western blot analysis indicated the activity of autophagy. Cells were treated with DMSO or compounds for 24 h, and then lysed and processed for western blot analysis of LC3. (–)G and EBSS were used as positive controls. […] Yellow puncta indicate autophagosome (overlay of red and green fluorescence); red puncta indicate autolysosome (due to green fluorescence quenching at the acidic condition). Cells expressing RFP-GFP-LC3 were treated with compounds A13, A15 or A21 at indicated concentration for 24 h.
Figure 8 Acridine compounds induce autophagy in PC-3 and PC-3a cancer cells LC3-II conversion in western blot analysis indicated the activity of autophagy. Cells were treated with DMSO or compounds for 24 h, and then lysed and processed for western blot analysis of LC3. (–)G and EBSS were used as positive controls.
as §1

Sequence of Bcl-2 protein (SUMO-Bcl-2) (P10415 1-211 limits assumed): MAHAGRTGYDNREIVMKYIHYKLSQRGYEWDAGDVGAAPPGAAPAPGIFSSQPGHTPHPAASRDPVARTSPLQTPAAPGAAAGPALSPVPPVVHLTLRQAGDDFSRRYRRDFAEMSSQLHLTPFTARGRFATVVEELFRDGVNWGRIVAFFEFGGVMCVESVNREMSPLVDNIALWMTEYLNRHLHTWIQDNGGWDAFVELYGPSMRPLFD
T2 sequence (Q07817 whole entry): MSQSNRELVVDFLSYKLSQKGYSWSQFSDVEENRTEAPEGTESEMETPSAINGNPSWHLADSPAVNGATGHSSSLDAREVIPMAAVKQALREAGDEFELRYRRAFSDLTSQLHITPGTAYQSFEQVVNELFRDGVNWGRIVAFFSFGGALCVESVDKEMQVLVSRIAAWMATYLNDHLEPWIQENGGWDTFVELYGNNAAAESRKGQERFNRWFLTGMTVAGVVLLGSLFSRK
T1 sequence (Q07817 whole entry, one chain of several): as the sequence (Q07817 whole entry) above

SMILES | IC50 [2] [µM] | binding level to Bcl-xL protein in SPR ([3]; SPR) | IC50 [4] [µM] | IC50 [5] [µM] | IC50 [6] [µM] | also measured
CC(=O)O.Cc1cc2c(C(C)C)c(O)c(O)c(C=O)c2c(O)c1-c1c(C)cc2c(C(C)C)c(O)c(O)c(C=O)c2c1O [(–)-gossypol] | – | – | – | – | – | competitive displacement of fluorescent 20-mer [1]: capable of freeing out fluorescent 20mer
CC1(C)CCC(c2ccc(Cl)cc2)=C(CN2CCN(c3ccc(C(=O)NS(=O)(=O)c4ccc(N[C@H](CCN5CCOCC5)CSc5ccccc5)c(S(=O)(=O)C(F)(F)F)c4)cc3)CC2)C1 [ABT-263] | – | – | – | – | – | competitive displacement of fluorescent 20-mer [1]: capable of freeing out fluorescent 20mer
COc1ccc(CCN(C)c2c3ccccc3nc3ccccc23)cc1OC [Compound 1] | 8.15 ± 0.59 | almost no binding | 5.81 ± 1.16 | 6.04 ± 0.68 | – | –
COc1ccc(CCNc2ncnc3ccccc23)cc1OC [Compound 3] | > 100 | almost no binding | 82.7 ± 7.99 | – | > 100 | –
Nc1c2ccccc2nc2ccccc12 [Compound 5] | 2.78 ± 0.79 | – | 0.74 ± 0.45 | 0.79 ± 0.07 | 0.5 to 5 | fold difference in IC50 value, PC-3 and PC-3a versus DU145 [6]: 3–5 fold
O=C(CSc1nc(=O)c2ccccc2[nH]1)c1ccc(O)c(O)c1 [Compound 6] | > 100 | almost no binding | > 100 | > 100 | > 100 | –
CCN(CC)CCCCNc1c2ccc(Cl)cc2nc2ccc(OC)cc12 [Compound 7] | 0.27 ± 0.13 | higher binding level than original hit A21 | 0.1 ± 0.05 | 0.11 ± 0.07 | < 0.5 | kon ([7]; SPR kinetic analysis, 1:1 model, read-out: association rate (Ka) to Bcl-2): 3200 M⁻¹ s⁻¹; koff ([7]; SPR kinetic analysis, 1:1 model, read-out: dissociation rate (Kd) from Bcl-2): 0.51 s⁻¹; Kd ([7]; SPR, KD = Kd/Ka, read-out: equilibrium dissociation constant KD to immobilized Bcl-2): 160 µM; kon ([3]; SPR kinetic analysis, 1:1 model, read-out: association rate (Ka) to Bcl-xL): 29600 M⁻¹ s⁻¹; koff ([3]; SPR kinetic analysis, 1:1 model, read-out: dissociation rate (Kd) from Bcl-xL): 0.193 s⁻¹; Kd ([3]; SPR, KD = Kd/Ka, read-out: equilibrium dissociation constant KD to immobilized Bcl-xL): 6.5 µM; selectivity for Bcl-xL protein over Bcl-2 ([3]; from SPR KD values): about 25 fold; SQSTM1/P62 turnover [8]: degradation of P62; LC3-I to LC3-II conversion ([8]; 24 h treatment): triggered the conversion of LC3-I to LC3-II; fold difference in IC50 value, PC-3 and PC-3a versus DU145 [6]: 3–5 fold
COc1ccc2nc3cc(Cl)ccc3c(N3CCN(C)CC3)c2c1 [Compound 9] | 6.24 ± 1.86 | – | 3.51 ± 1.15 | 2.93 ± 1.18 | – | melting point: 135 to 138 °C
COc1ccc2nc3ccccc3c(-c3ccc([N+](=O)[O-])cc3)c2c1 [Compound 11] | > 100 | almost no binding | > 100 | > 100 | > 100 | –
COc1ccc2nc3cc(Cl)ccc3c(-c3ccc([N+](=O)[O-])cc3)c2c1 [Compound 14] | > 100 | almost no binding | > 100 | > 100 | > 100 | melting point: 207 to 211 °C
COc1ccc2nc3cc(Cl)ccc3c(-c3ccc(F)cc3)c2c1 [Compound 15] | > 100 | almost no binding | > 100 | > 100 | > 100 | –
